Key:
[1] = target: T1, human TGR5 (h-TGR5) (Homo sapiens, UniProt Q8TDU6); assay: TGR5/CRE-Luciferiase Assay (HEK 293 hTGR5/CRE-Luc cells); type: cell-based; conditions: h-TGR5 CRE-Luc EC50, Table 1; read-out: CRE-Luc (EC50)
T1 construct: expressed in transfected cells
T1 sequence (Q8TDU6 1-330): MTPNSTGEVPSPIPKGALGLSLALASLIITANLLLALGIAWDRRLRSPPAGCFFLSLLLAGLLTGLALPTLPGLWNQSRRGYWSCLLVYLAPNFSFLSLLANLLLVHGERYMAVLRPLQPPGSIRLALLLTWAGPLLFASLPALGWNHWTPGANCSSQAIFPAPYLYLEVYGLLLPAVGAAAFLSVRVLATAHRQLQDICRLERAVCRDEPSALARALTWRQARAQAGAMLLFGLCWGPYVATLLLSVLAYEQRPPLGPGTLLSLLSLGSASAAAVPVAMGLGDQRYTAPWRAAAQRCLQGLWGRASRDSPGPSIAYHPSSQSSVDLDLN
In short: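 HEK293 cells stably carrying hTGR5 and a CRE-luciferase reporter were exposed to serially diluted compounds (diluted in DMEM with 5% DMSO) for 6 h. Cells were then lysed in luciferase buffer, luminescence was read, and EC50 values were derived from dose-response curves.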

[2] = target: T2, h-TGR5 (Homo sapiens, UniProt Q8TDU6); assay: TGR5 cAMP Assay using Cisbio cAMP Dynamic2 htrf kit (hTGR5CRE-luc HEK 293 cells); type: cell-based; conditions: h-TGR5 cAMP EC50, Table 1; read-out: cAMP (EC50)
T2 construct: expressed in transfected cells
T2 sequence (Q8TDU6 1-330): T1 sequence (Q8TDU6 1-330)
In short: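 […], 4000 hTGR5CRE-luc HEK 293 cells per well, with 0.5 mM IBMX and d2-cAMP, were incubated 30 min at room temperature with compounds in 8-point half-log series, in quadruplicate.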

| Molecule | EC50 [1] | EC50 [2] |
| --- | --- | --- |
| CC(C)(c1ccc(Cl)c(Cl)c1)c1cnc(SCc2c(F)cc(C(=O)NCS(=O)(=O)O)cc2F)n1-c1ccc(F)c(Cl)c1 [[({4-[({1-(3-chloro-4-fluorophenyl)-5-[1-(3,4-dichlorophenyl)-1-methylethyl]-1H-imidazol-2-yl}thio)methyl]-3,5-difluorophenyl}carbonyl)amino]methanesulfonic acid] | < 100 nM | < 100 nM |
| COc1cc(-n2c(C(C)(C)c3ccc(Cl)c(Cl)c3)cnc2SCc2c(F)cc(C(=O)NCS(=O)(=O)O)cc2F)ccc1F [[({4-[({5-[1-(3,4-dichlorophenyl)-1-methylethyl]-1-[4-fluoro-3-(methyloxy)phenyl]-1H-imidazol-2-yl}thio)methyl]-3,5-difIuorophenyl}carbonyl)amino]methanesulfonic acid] | < 100 nM | < 100 nM |
| CCOC(=O)NS(=O)(=O)c1ccc(CSc2ncc(C(C)(C)c3ccc(Cl)c(Cl)c3)n2-c2ccc(F)c(OC)c2)c(Cl)c1 [ethyl ({3-chloro-4-[({5-[1-(3,4-dichlorophenyl)-1-methylethyl]-1-[4-fluoro-3-(methyloxy)phenyl]-1H-imidazol-2-yl}thio)methyl]phenyl}sulfonyl)carbamate] | 100 to 1000 nM | 100 to 1000 nM |
| CCOC(=O)NS(=O)(=O)c1ccc(CSc2ncc(C(C)(C)c3ccc(S(N)(=O)=O)c(Cl)c3)n2-c2ccc(F)c(OC)c2)c(Cl)c1 [ethyl [(4-{[(5-{1-[4-(aminosulfonyl)-3-chlorophenyl]-1-methylethyl}-1-[4-fluoro-3-(methyloxy)phenyl]-1H-imidazol-2-yl)thio]methyl}-3-chlorophenyl)sulfonyl]carbamate] | < 100 nM | < 100 nM |
| CCOC(=O)NS(=O)(=O)c1ccc(CSc2ncc(C(C)(C)c3ccc(OC)c(Cl)c3)n2-c2ccc(F)cc2)c(Cl)c1 [ethyl {[3-chloro-4-({[5-{1-[3-chloro-4-(methyloxy)phenyl]-1-methylethyl}-1-(4-fluorophenyl)-1H-imidazol-2-yl]thio}methyl)phenyl]sulfonyl}carbamate] | < 100 nM | < 100 nM |
| CCOC(=O)NS(=O)(=O)c1ccc(CSc2ncc(C(C)(C)c3ccc(Cl)c(OC)c3)n2-c2ccc(F)cc2)c(Cl)c1 [ethyl {[3-chloro-4-({[5-{1-[4-chloro-3-(methyloxy)phenyl]-1-methylethyl}-1-(4-fluorophenyl)-1H-imidazol-2-yl]thio}methyl)phenyl]sulfonyl}carbamate] | < 100 nM | < 100 nM |
| CCOC(=O)NS(=O)(=O)c1ccc(CSc2ncc(C(C)(C)c3ccc(S(N)(=O)=O)c(Cl)c3)n2-c2ccc(F)cc2)c(Cl)c1 [ethyl {[4-({[5-{1-[4-(aminosulfonyl)-3-chlorophenyl]-1-methylethyl}-1-(4-fluorophenyl)-1H-imidazol-2-yl]thio}methyl)-3-chlorophenyl]sulfonyl}carbamate] | 100 to 1000 nM | < 100 nM |
| CCOC(=O)NS(=O)(=O)c1ccc(CSc2ncc(C(C)(C)c3ccc(Cl)c(OC)c3)n2-c2ccc(F)cc2)cc1F [ethyl {[4-({[5-{1-[4-chloro-3-(methyloxy)phenyl]-1-methylethyl}-1-(4-fluorophenyl)-1H-imidazol-2-yl]thio}methyl)-2-fluorophenyl]sulfonyl}carbamate] | < 100 nM | < 100 nM |
| CCOC(=O)NS(=O)(=O)c1ccc(CSc2ncc(C(C)(C)c3ccc(Cl)c(OC)c3)n2-c2ccc(F)cc2)c(F)c1 [ethyl {[4-({[5-{1-[4-chloro-3-(methyloxy)phenyl]-1-methylethyl}-1-(4-fluorophenyl)-1H-imidazol-2-yl]thio}methyl)-3-fluorophenyl]sulfonyl}carbamate] | < 100 nM | < 100 nM |
| COC(=O)c1cc(CSc2ncc(C(C)(C)c3ccc(Cl)c(Cl)c3)n2-c2ccc(F)c(OC)c2)ccc1C#CCNC(=N)N [methyl 2-(3-{[amino(imino)methyl]amino}prop-1-yn-1-yl)-5-[({5-[1-(3,4-dichlorophenyl)-1-methylethyl]-1-[4-fluoro-3-(methyloxy)phenyl]-1H-imidazol-2-yl}thio)methyl]benzoate] | 100 to 1000 nM | 100 to 1000 nM |
| N-2-({[3-chloro-4-({[5-{1-[4-chloro-3- (methyloxy)phenyl]-1-methylethyl}-1-(4- fluorophenyl)-1H-imidazol-2-yl]thio}methyl)- 5-fluorophenyl]amino}carbonyl)-L-arginine | < 100 nM | < 100 nM |
